Legend:
Format in all cases: functional
Details in all cases: Homo sapiens, read-out: ED50 (the source's name)
[1] = system: MLM; assay: Cytotoxic concentration required to inhibit 50% cell growth in MLM melanoma cell lines
[2] = system: HT-29; assay: Cytotoxic concentration required to inhibit 50% cell growth in HT-29 colon adenocarcinoma cell lines
[3] = system: A549; assay: Cytotoxic concentration required to inhibit 50% cell growth in A-549 lung carcinoma cell lines
[4] = system: MCF7; assay: Cytotoxic concentration required to inhibit 50% cell growth in MCF-7 breast carcinoma cell lines
[5] = system: SK-MEL-5; assay: Cytotoxic concentration required to inhibit 50% cell growth in SKMEL-5 melanoma cell lines

SMILES	EC50 [1] [µM]	EC50 [2] [µM]	EC50 [3] [µM]	EC50 [4] [µM]	EC50 [5] [µM]
COc1cc(/C=C\c2ccncc2)cc(OC)c1OC	> 25	12.9	14.2	17	14.4
COc1cc(/C=C\c2cccnc2)cc(OC)c1OC	> 25	9.8	13.7	14.7	6
COc1cc(/C=C/c2cccnc2)cc(OC)c1OC	> 25	> 25	> 25	> 25	> 25
COc1cc(CCc2ccc(NC(C)=O)cc2)cc(OC)c1OC	> 25	> 25	> 25	> 25	> 25
COc1cc(/C=C/c2ccc(OC)c(OC)c2OC)cc(OC)c1OC	23.9	10.3	12.5	14.7	10.6
COc1ccccc1/C=C\c1cc(OC)c(OC)c(OC)c1	8.6	0.87	1.1	1.3	1.2
COc1cc(CCc2ccc(O)cc2)cc(OC)c1OC	> 25	> 25	> 25	> 25	> 25
COc1cc(OC)c(/C=C/c2ccccc2)c(OC)c1	> 25	> 25	> 25	> 25	> 25
COc1cc(OC)c(OC)cc1CCc1cc(OC)c(OC)c(OC)c1	> 25	> 25	> 25	> 25	> 25
COc1cc(CCc2ccc(OC(C)=O)cc2)cc(OC)c1OC	> 25	> 25	19	> 25	> 25
COc1ccc(C(=O)Nc2cc(OC)c(OC)c(OC)c2)cc1	> 25	> 25	> 25	> 25	> 25
COc1cc(/C=C/c2ccc([N+](=O)[O-])cc2)cc(OC)c1OC	> 25	> 25	> 25	> 25	> 25
COc1ccc(CNc2cc(OC)cc(OC)c2)cc1	> 25	> 25	> 25	> 25	> 25
COc1cc(CCc2ccncc2)cc(OC)c1OC	> 25	> 25	> 25	> 25	> 25
COc1ccccc1CCc1cc(OC)c(OC)c(OC)c1	> 25	> 25	13.5	11.8	20
COc1ccc(/C=C/c2ccccc2)c(OC)c1OC	> 25	> 25	> 25	> 25	> 25
COc1cc(/C=C/c2ccccc2)cc(OC)c1OC	> 25	> 25	> 25	> 25	> 25
COc1ccc(/C=C/c2ccccc2)cc1OC	> 25	> 25	> 25	> 25	> 25
COc1cc(/C=C/c2ccc(O[Si](C)(C)C(C)(C)C)cc2)cc(OC)c1OC	> 25	> 25	> 25	> 25	> 25
COc1ccc(C(=O)Nc2cc(OC)cc(OC)c2)cc1	> 25	> 25	> 25	> 25	> 25
COc1cc(NC(=O)c2cc(OC)c(OC)c(OC)c2)cc(OC)c1OC	> 25	> 25	> 25	> 25	> 25
COc1cc(/C=C/c2cc(OC)c(OC)c(OC)c2)cc(OC)c1	> 25	> 25	> 25	> 25	> 25
COc1cc(/C=C/c2ccccn2)cc(OC)c1OC	> 25	> 25	> 25	> 25	> 25
COc1cc(/C=C/c2ccncc2)cc(OC)c1OC	> 25	> 25	> 25	> 25	> 25
COc1cc(CCc2cccnc2)cc(OC)c1OC	> 25	> 25	12.2	> 25	> 25
COc1ccc(C(=O)Nc2cc(OC)c(OC)c(OC)c2)cc1OC	> 25	> 25	> 25	> 25	> 25
COc1ccc(/C=C/c2cc(OC)c(OC)c(OC)c2)c(Cl)c1	> 25	> 25	> 25	> 25	> 25

Reference: ChEMBL document CHEMBL1125188, “Synthesis and evaluation of stilbene and dihydrostilbene derivatives as potential anticancer agents that inhibit tubulin polymerization” (J Med Chem, 1991)
